This data set deals with newly emerged larvae of the blowfly, Lucilia sericata. In words: treated paper/serum bioassay, contact and/or ingestion activity against newly emerged blowfly larvae. In kind it is in vivo. Conditions: single compound. As for the experimental part:
Contact and/or ingestion activities of compounds against newly emerged larvae of the blowfly, Lucilia sericata, are tested using a treated paper/serum bioassay. In this assay, test compounds diluted to the required concentrations in acetone are applied to filter paper discs and allowed to dry. Bovine serum and newly emerged blowfly larvae are added to the discs and mortality assessed at 24 and 48 hours.

The mark [1] stands for this setting: larval mortality assessed at 48 hours.

In brackets after ≈: the same amount, converted by molar mass. Several values for one entry are separate records, joined by “and”; a condition that tells them apart may be missing. Equal values may be shown once.

For the molecule moxidectin, under “larval mortality assessed at 24 hours”, the “Approximate LC50 24 hour” value was 1.54 µg/mL and 0.85 µg/mL. In addition, under setting [1], the “Approximate LC50 48 hour” value was 0.80 µg/mL and 0.63 µg/mL.
Regarding `CCOCn1c(-c2ccc(Cl)cc2)c(C#N)c(Br)c1C(F)(F)F` [C, 4-bromo-2-(p-chlorophenyl)-1-(ethoxymethyl)-5-(trifluoromethyl)pyrrole-3-carbonitrile], where the note is “Lucilia sericata, 48 h, larval mortality assessed at 48 hours, read-out: Approximate LC50 48 hour”, the LC50 was determined as 2.5 µg/mL (≈ 6.13 µM). In addition, under setting [1], the “Approximate LC50 48 hour” value was determined as 4.69 µg/mL.

Broadly, the LC50 is the concentration that kills 50% of the test population.

The values are drawn from US6479537B2, “Synergistic ectoparasiticidal methods and compositions” (American Cyanamid Company, priority 2000, dated 2002).
